In US11980667B2, “Short TAT oligomers for drug delivery” (The Trustees of Columbia University in the City of New York, priority 2017, dated 2024):

Tests used:
9L glioma tumors [1] = conditions: IA-TCH, 1 mL of 0.5 mg/mL, 15 minutes
Description: In a separate experiment, 14 days post-implantation of 9L glioma tumors, eight rats were anesthetized and prepared for IA-TCH. Blood flow reduction for TCH was achieved by bolus IV injection of adenosine and esmolol that were flushed with cold saline. […] Animals were sacrificed 15 minutes after TAT injection. Brain tissue was harvested. Gross sections were imaged with multi-spectral imaging (MSI) system using a photon counting cooled fluorescence camera. A 490 nm light was used for excitation while 525 nm filter was used for imaging the emitted light.

9L glioma = assay: IA-TCH versus IV delivery: uptake by confocal microscopy imaging of frozen sections; type: in vivo, rat; conditions: n = 6
From the text: Comparison of […] and IV TAT delivery. Fisher 344 rats weighing about 200 g were utilized. During initial surgery under ketamine-xylazine isoflurane anesthesia 5×10^5 9 L cells were implanted 3 mm below the skull and 2-3 mm posterior and lateral to the bregma through a 1 mm craniotomy. […] The animals were assigned separately to IV and IA-TCH groups. On the day of drug delivery, animals were sedated with isoflurane and injected with ketamine/xylazine. The tail vein was cannulated for intravenous access. Under aseptic precautions, a tracheostomy and carotid cannulation were performed. Anesthesia was maintained by mechanical ventilation with isoflurane (1.8-2.2%). Thereafter animals were turned prone on a stereotactic frame. The skull was exposed and the region of tumor implantation was shaved to transparency. A laser Doppler probe was implanted on the skull with the aid of a plastic holder to assess cerebral/tumor blood flow. Rectal temperature, pulse pleth (volume), pulse oxygen saturation, EKG, expired and inspired gas composition, brain and skin blood flow with lase Doppler were continuously monitored.
Transient cerebral hypoperfusion and fluorescein-labeled TAT monomer injection. IA injections were made during TCH by the following method. Reduction of blood flow was achieved by bolus IV injections of adenosine (2 mg) and esmolol (2 mg), and cold saline (1.5 mL at 4° C.). Typically such an intervention decreases cerebral blood flow to about 20% of the baseline. The heart rate response varies from sinus bradycardia to a sinus pause. However, physiological parameters rapidly recover within 3-5 minutes. […] For each animal, a test IA injection was done prior to the onset of hypotension to ensure delivery of the desired injection volume and the injection sequence was resumed after bolus IV injections of hypotensive drugs.
Frozen sections (10 μm thick) were imaged under a Nikon confocal microscope with 470 nm excitation. Due to the large size of the tissue sample, small sections of images were obtained and then assembled together. An adjacent section was stained with hematoxylin and eosin to confirm the size and location of the tumor. The total fluorescence in the tumor region, in the non-tumor ipsi-lateral hemisphere, and in the corresponding region contra-lateral to the tumor was quantified. The contra-lateral hemisphere was used for background correction.

9L glioma tumor = assay: In vivo uptake of TAT dimer versus monomer by IA-TCH (MSI and confocal imaging); set-up: species or system rat; conditions: dimer 0.25 mg, monomer 0.125 mg, five rats each
Description: An additional experiment was performed to assess the in vivo uptake of fluorescein-labeled TAT dimer by IA-TCH. About 14 days after 9L glioma tumor implantation, rats were anesthetized and prepared for TAT dimer delivery experiments. TAT dimer was conjugated with fluorescein such that its concentrations in post mortem samples could be determined immediately by multispectral imaging and confocal imaging. TAT dimer (0.25 mg) and monomer (0.125 mg) were tested using IA-TCH delivery both containing equal amounts of fluorescein were evaluated. […] Animals were sacrificed 15 minutes after TAT injection. Brain tissue was harvested.

[2] = Delivery of cell-penetrating peptides to the brain of healthy rats, confocal microscopy; type: in vivo, rat
From the text: Animal preparation, IA-TCH injection, and brain tumor implantation. Animal protocols were approved by the Columbia University Institutional Animal Care and Use Committee (IACUC). Studies were primarily conducted on Sprague-Dawley rats weighing 250 to 300 grams. In the case of electron multiplying charge-coupled device imaging studies, Fisher 344 rats implanted with 9L brain tumors were utilized. The surgical preparation including anesthesia, carotid and femoral cannulation, cerebral blood flow and vital sign monitoring, as well as in vivo fluorescence imaging have been previously described in detail.
IA injections of cell-penetrating peptides (CPPs) were made during TCH as 65 μL pulses totaling 1 ml in volume. TCH was produced by a bolus injection of adenosine, esmolol, and cold saline. Animals were allowed to hemodynamically recover from TCH and euthanized 10 minutes after injection. Uptake of CPPs was assessed with a fluorescence camera and with confocal fluorescence microscopy.
Cell-penetrating peptides. Two experimental cell-penetrating peptides were tested: 1. octaarginine, also called (Arg)8 or R-8 (SEQ ID NO: 13) and 2. trans-activator of transcription or TAT (Lifetien Inc.). The 14 amino acid peptide sequence for TAT is […]COOH (SEQ ID NO: 11). Both cell-penetrating peptides (CPPs) were labeled with fluorescein so that their distribution could be identified by multispectral imaging and with fluorescence microscopy of the frozen brain sections.
Fluorescence and electron multiplying charge-coupled device imaging.

C6 glioma = conditions: IA-TCH, 0.5 mg, N=3
Description: For in vivo tumor delivery studies, rats were implanted with C6 brain tumor cells as previously described. […] They were scarified 10 minutes later and the brains were harvested and sectioned.
Fluorescence and electron multiplying charge-coupled device imaging. Fluorescence imaging was done with a white light excitation through a 470 nm filter with central frequency. Emission was observed through a 520 nm band pass filter using a fluorescence camera (Prosilica GE™ AVI Technologies Inc.). All images were normalized to the background and to the injected FITC-TAT concentrations—a sample of which was imaged alongside in a capillary tube.

9L glioma tumors [3] = conditions: four arrest cycles IA-TCH; single arrest from historical controls
Description: Multiple Arrest Study. 9L glioma tumors were implanted into five rats. 14 days post-implantation, the rats were anesthetized and prepared for the injections. Blood flow reduction was achieved by bolus IV injection of adenosine and esmolol that were flushed with cold saline. Four arrest cycles were used to deliver fluorescein-conjugated TAT monomer via intra-arterial injection with a 5 minute recovery period between each arrest. Animals were sacrificed 15 minutes after injection. Brain tissues were harvested an imaged using a multi-spectral imaging system using a photon counted cooled fluorescence camera. A 470 nm light was used for excitation while a 530 nm filter was used for imaging the emitted light.

For `N=C(N)NCCC[C@H](NC(=O)CNC(=O)c1ccc2c(c1)C(=O)OC21c2ccc(O)cc2Oc2cc(O)ccc21)C(=O)N[C@@H](CCCCN)C(=O)N[C@@H](CCCCN)C(=O)N[C@@H](CCCNC(=N)N)C(=O)N[C@@H](CCCNC(=N)N)C(=O)N[C@@H](CCC(N)=O)C(=O)N[C@@H](CCCNC(=N)N)C(=O)N[C@@H](CCCNC(=N)N)C(=O)N[C@@H](CCCNC(=N)N)C(=O)N1CCC[C@H]1C(=O)N1CCC[C@H]1C(=O)N[C@@H](CCC(N)=O)C(=O)N[C@@H](CCC(N)=O)C(=O)O` [fluorescein-labeled TAT monomer, 5-FAM-GRKKRRQRRR PPQQ-COOH], which “Concentration in the tumor versus the opposite side” value (9L glioma tumors [1]) is on record?
The value was 13 ×.

What about the “Uptake in the tumor compared to adjacent regions” value (9L glioma tumors [1]) of the same compound?
Its value is 5 ×.

And the Contralateral fluorescence (9L glioma; IA-TCH)?
Its Contralateral fluorescence is 161 ± 94 AU.

What about the Ipsi-lateral fluorescence (9L glioma; IA-TCH) of the same compound?
Its Ipsi-lateral fluorescence is 353 ± 76 AU.

And the Ipsi/contralateral ratio (9L glioma; IA-TCH)?
The Ipsi/contralateral ratio was 2.7 ± 1.4.

And the Tumor fluorescence (9L glioma; IA-TCH)?
The Tumor fluorescence was 1758 ± 474 AU.

And the Tumor/contralateral ratio (9L glioma; IA-TCH)?
The Tumor/contralateral ratio was 13.8 ± 7.6.

And the Tumor/ipsi-lateral ratio (9L glioma; IA-TCH)?
Its Tumor/ipsi-lateral ratio is 4.9 ± 0.7.

What about the Contralateral fluorescence (9L glioma; IV) of the same compound?
Its Contralateral fluorescence is 205 ± 67 AU.

What about the Ipsi-lateral fluorescence (9L glioma; IV) of the same compound?
Its Ipsi-lateral fluorescence is 216 ± 65 AU.

What about the Ipsi/contralateral ratio (9L glioma; IV) of the same compound?
Its Ipsi/contralateral ratio is 1.1 ± 0.5.

And the Tumor fluorescence (9L glioma; IV)?
The Tumor fluorescence was 528 ± 246 AU.

And the Tumor/contralateral ratio (9L glioma; IV)?
The Tumor/contralateral ratio was 3.0 ± 1.4.

What about the Tumor/ipsi-lateral ratio (9L glioma; IV) of the same compound?
The Tumor/ipsi-lateral ratio was 2.4 ± 1.1.

And the Tumor selective delivery (9L glioma tumor)?
Its Tumor selective delivery is “able to achieve tumor selective drug delivery”.

And the Deposition by hemisphere ([2]; IA-TCH carotid injection, confocal microscopy)?
The Deposition by hemisphere was “detectable deposition preferentially to the hemisphere ipsilateral to carotid injection”.

And the “Parenchymal deposition versus dose” value ([2]; IA-TCH, dose range 0.25-1 mg)?
Its value is “dose dependent increase”.

What about the “Distribution in the brain (semi-quantitative)” value ([2]; IA-TCH, confocal microscopy) of the same compound?
Its value is “more diffuse deposition within the white matter”.

And the “Distribution in the brain” value ([2]; IV delivery of 0.5 mg, FIG. 17 F)?
Its value is “diffuse uptake of TAT in and beyond the blood vessels was seen preferentially in the white matter”.

What about the “Deposition in tumor (semi-quantitative fluorescence imaging)” value (C6 glioma) of the same compound?
The value was “preferentially targeted to the tumor mass in all animals”.

What about the “Deposition, multiple arrest compared to single-arrest” value (9L glioma tumors [3]) of the same compound?
The value was “increases the amount of TAT deposition but also increases non-specific deposition”.
